In US20160015064A1, “COMPOUNDS, COMPOSITIONS, AND METHODS FOR MODULATING SWEET TASTE” (CHROMOCELL CORPORATION, priority 2013, published 2016):

How the values were obtained:
[1] = Solubilization of the compounds in solvents/solubilizers and clarity in lemon-lime beverage; type: physicochemical; settings: for Time final beverage remained a clear solution: sucrose co-melt (caramel-melts), Q-NATURALE® 200
Method: To identify a sufficient delivery mechanism for the sweet enhacing compounds of the present invention, several method of solublization were tested for use in clear beverages. The overall goal was to solubilize the compounds of the invention and have them be deliverable in a clear, carbonated beverage, which can be sweetened with various forms of nutritive and non-nutritive sweeteners without negative flavor impact, i.e. no loss in efficacy (the sweetness perception increase) and no off-flavor formation. In particular, the goal was to identify a delivery mechanism that would allow the compounds to be delivered to the beverage at an “as consumed” level between 10 ppm and 50 ppm. […] The carrier ingredients should not impart any negative physical attributes or negative flavor attributes to the product. An ideal delivery system would not require the labeling of any carrier ingredients and would work with a beverage concentrate model system, preferably a 1+5 concentrate throw.
Initial trials were conducted to dissolve the compound in various flavor type solvents, including ethanol, 200 proof; triacetin; propylene glycol; lemon-lime flavor extract; lemon oil (washed); citrus oil; polysorbate 80; polysorbate 60; polysorbate 20; benzyl alcohol; and NEOBEE® M-5 oil.
In polysorbate formulations, Compound 3 and the polysorbates were accurately weighed into screw-capped glass vials according to Table 8 and heated at 70-90° C. and vortex mixed to facilitate the solubilization. The resulting mixtures were blended into 41.5 brix lemon-lime flavored beverage syrup under stirring and stored overnight at room temperature. The syrup was diluted with 5× water to achieve the final 7.7 brix lemon-lime beverage.
(§1) For example, Compound 3 and polysorbate 80 were accurately weighed into screw-capped glass vials according to Table 9 and heated at 70-90° C. and vortex mixed to facilitate the solubilization. Q-[…]® was added to the 41.5 brix lemon-lime flavored beverage syrup. The polysorbate 80 mixtures were blended into 41.5 brix lemon-lime flavored beverage syrup with Q-[…]® 200 and vortex mixed at 3000 rpm for 75 seconds. The resulting syrups were stored overnight at room temperature. The syrup was then diluted with 5× water to achieve the final 7.7 brix lemon-lime beverage. […] Solution PQ2 was able to maintain clear solution for 1 month.
(§2) Because Q-[…]® was able to maintain the stability of the sweet enhancing compounds, it was evaluated in combination with additional solvents. […] In another example, Compound 3, Q-[…]®, and either 1,2-propylene glycol or ethanol 200 proof were accurately weighed into screw-capped glass vials according to Table 10 and heated and vortex mixed to facilitate the solubilization. The resulting solution mixtures were blended into 41.5 brix lemon-lime flavored beverage syrup and vortexed at 3000 rpm for 75 seconds. The resulting syrups were stored overnight at refrigerated temperature and diluted with 5× water to achieve the final 7.7 brix lemon-lime beverage. All solutions (i.e., PGEQ1-PGEQ4) were able to maintain clear solution for 33 days at room temperature and 14 days at refrigerated temperature.
In another example, 40 mg Compound 3 and 1 g rubusoside were weighed into 20 ml glass vials. 20 ml water was added to the vial, which was vortex mixed slightly to form a suspension solution. The suspension was homogenized at 8000 rpm using a Silverson L5M-A to from an emulsion. The emulsion was heated at 121° C. for 1 h. The sample after heating was suspended at room temperature for 24 h to equilibrate and was filtered afterward. The weight ratio between rubusoside and Compound 3 was determined to be 147:1. Therefore, […] rubusoside was needed to solubilize 25 ppm Compound 3.
The ability of sugar to co-melt with compounds of the invention was also evaluated. 30 mg Compound 3 and 150 mg sucrose were dissolved in a solvent mixture of 9 ml ethanol and 1 ml water. […]

[2] = test system: sweetness enhancement effect and off-taste in lemon-lime beverage; assay: Sensory assessment / informal tasting of solubilized Compound 3 beverages; type: in vivo; settings: sucrose co-melt
Method: as §1
as §2, with “All solutions (i.e., PGEQ1-PGEQ4) were able to maintain clear solution for 33 days at room temperature and 14 days at refrigerated temperature.” left out
The ability of sugar to co-melt with compounds of the invention was also evaluated. […]

[3] = test system: sweetness of orange juice beverage; assay: Panel sweetness of 75% orange juice with Compound 3 compared to 100% orange juice; type: in vivo
Method: Concentrated citrus juice (e.g., orange juice concentrate and lemon juice concentrate) can be used to emulsify flavor oils directly. Dilutions of the Compound 3 were made by dissolving the compound into NEOBEE® M-5 oil at 20 mg/ml and into triacetin at 40 mg/ml. These dilutions were then added to orange juice concentrate (60 brix and 63 brix) and lemon juice concentrate (400 gpl) to deliver a final concentration of 15-30 ppm Compound 3, and blended with the Silverson High Shear Mixer. The juices were diluted to their single strength levels (or less) for final consumption.
In one example, Compound 3 was dissolved into triacetin at a concentration of 40 mg/ml. The Compound 3-triacetin mixture was added to orange juice concentrate (1+3 throw) and blended using a high shear mixer. The concentrate was then diluted to a 75% juice product (8.85 brix) and compared to single strength orange juice (11.8 brix). The test sample contained Compound 3 at 20 ppm. Other test variables using 1+5 were included in the panel. Tests were performed with just Compound 3 in orange juice at full strength and 75%. Compound 3 was dosed at 20 and 30 ppm, and the resulting solutions were tested at day 1, 7, 14, and 21. N varied between 9 and 14 panelists.

[4] = heated at 70-90° C., vortex mixed

Compound: COc1ccc(C2CC(=O)c3c(O)cccc3O2)cc1O (single isomer, unassigned) [Compound 3, 5-hydroxy-2-(3-hydroxy-4-methoxyphenyl)chroman-4-one]
- Precipitation of final beverages ([1]; encapsulated with alpha-, beta-, gamma-cyclodextrin (molar 1:1, 1:2, 1:4), 25 ppm in 7.7 brix lemon-lime beverage): had precipitates
- Dissolution in polysorbate 20 [1, 4]: did not dissolve
- Dissolution in polysorbate 60 [1, 4]: did not dissolve
- Precipitation in final beverages ([1]; polysorbate 80 solutions PS1-PS6, 7.7 brix lemon-lime beverage): precipitated overnight
- Time final beverage remained a clear solution ([1]; 7.7 brix lemon-lime beverage, refrigerated temperature): 14 days
- Time final beverage remained a clear solution ([1]; 7.7 brix lemon-lime beverage, room temperature): 30 days
- Sweetness enhancement effect in final beverage (sensory assessment) ([2]; 7.7 brix lemon-lime beverage): maintained its sweetness enhancement effect
- Off-taste (informal tasting assay) ([2]; lemon-lime beverage): perceptible off-taste
- Relative Sweetness Compared to Control (100% OJ) ([3]; T1: 75% OJ w/20 ppm, Fresh, Day 1 (Fresh)): Same as Control
- Relative Sweetness Compared to Control (100% OJ) ([3]; T2: 75% OJ w/30 ppm, Aged, Day 21): added sweetness
- Relative Sweetness Compared to Control (100% OJ) ([3]; T2: 75% OJ w/30 ppm, Fresh, Day 1 (Fresh)): Same as Control
